Reference: article PMC8308780, “Antiviral Activity of Isoquinolone Derivatives against Influenza Viruses and Their Cytotoxicity” (Pharmaceuticals, 2021)
Structures can show the parent of a compound that is named as a salt. Where two headings read alike, the source gives them in different places.

What was measured:
[1] = test system: A/Hong Kong/8/68 (H3N2; HK); assay: microbe, parasite or virus in culture; type: cell-based; conditions: Influenza A virus, read-out: EC50 against Influenza Virus HK
[2] = in vitro; conditions: dog
[3] = test system: B/Lee/40 (Lee); assay: microbe, parasite or virus in culture; type: cell-based, influenza B virus; conditions: unidentified influenza virus, MDCK, read-out: EC50 against Influenza Virus Lee
[4] = test system: A/Puerto Rico/8/34 (H1N1; PR8); assay: microbe, parasite or virus in culture; type: cell-based; conditions: Influenza A virus, read-out: EC50 against Influenza Virus PR8
[5] = test system: PR8 virus; conditions: 3 or 30 µM, 5 h post-infection
Description: For fluorescence microscopy, PR8 virus-infected MDCK cells (MOI, 3) seeded onto 4-well slides (8.5 × 10^4 cells per well) were treated with DMSO (delivery vehicle), compound 1, or RBV at 33 °C for 5 h. After fixing and permeabilization, viral NP was visualized using an anti-NP antibody (Santa Cruz Biotechnology, Santa Cruz, CA, USA), followed by an Alexa 488-conjugated goat anti-mouse IgG (Invitrogen) [10]. Cells were counterstained with a Vectashield mounting medium containing DAPI (Vector Laboratories, Burlingame, CA, USA). Images were captured under a Zeiss LSM 700 confocal microscope (Carl Zeiss, Thornwood, NY, USA).

[6] = test system: MDCK cells; assay: Fluorescein diacetate-based cell viability assay, mock-infected cells (cytotoxicity)
[7] = test system: PR8 virus; conditions: MDCK cells, subtoxic concentrations, 1 day
[8] = test system: PR8 virus; type: cell-based, influenza A virus
[9] = test system: MDCK cells; conditions: 2-day treatment, concentrations above 0.41 µM
[10] = in vitro; conditions: dog; remark: listed apart in the source
[11] = biological target: influenza A viral polymerase (Influenza A virus, UniProt P03428+P03431+P03433); type: cell-based
[12] = test system: influenza A and B viruses (PR8, HK, Lee); assay: Cytopathic effect assay, values given across the viral strains tested; type: cell-based; conditions: Influenza A virus
[13] = test system: PR8 virus; assay: microbe, parasite or virus in culture; type: cell-based, influenza A virus; conditions: for antiviral activity on exposure during viral adsorption: 0–1 h at 4 °C, compound 1 10 µM, EGCG 1 µM
[14] = biological target: NA (Influenza A virus, UniProt P03468); assay: NA activity assay (NA-XTD kit) with purified PR8 virus; type: biochemical, influenza A virus PR8; conditions: maximum concentration of 30 µM
Description: An NA activity assay was performed by using the NA-XTD Influenza Neuraminidase assay kit (Applied Biosystems, Foster City, CA, USA) [25, 26]. The influenza A virus PR8 (2.8 × 10^3 PFU) was mixed with the same volume of compounds at 37 °C for 20 min. After an addition of NA-XTD substrate, the mixture was incubated at room temperature for 30 min. The luminescent signal was maximized by the addition of an NA-XTD accelerator according to the manufacturer’s instructions and read using a microplate luminometer (Centro LB960 system; Berthold Technologies, Bad Wildbad, Germany). Half maximum inhibitory concentrations (IC50s) were determined using GraphPad Prism 8.4.2.

[15] = A/Hong Kong/8/68 (H3N2), MDCK cells
[16] = A/Puerto Rico/8/34 (H1N1), MDCK cells
[17] = PR8, HK and Lee strains, MDCK cells, read-out: EC50 values, range across influenza A and B viruses

Molecule | EC50 [1, 15] | EC50 [3] | EC50 [4, 16] | CC50 at 3 days [2] | further results
NC12CC3CC(CC(C3)C1)C2 [AMT, amantadine hydrochloride, reference compound] | 1.6 µM | > 300 µM | > 300 µM | – | CC50 at 3 days ([2]; mock-infected MDCK cells): > 300 µM
CCc1cc2c(cc1-c1cc3ccc(OC)c(OC)c3c(=O)n1C)OCO2 [Compound 1, 3-(6-ethylbenzo[d][1,3]dioxol-5-yl)-7,8-dimethoxy-2-methylisoquinolin-1(2H)] | 0.3 µM | 0.6 µM | 0.2 µM | 39 µM | NP-positive cells (confocal microscopy) [5]: few or no NP-positive cells; cell death ([6]; incubation for 2 days, concentrations > 0.41 µM, fluorescein diacetate): > 40%; viral protein expression (Western blot) [7]: reducing the expression of viral proteins, including NP and HA; progeny virus production (plaque assay) [8]: reducing the number of viral progeny released into the culture supernatant; cell death (MTT) [9]: > 40%; viability at 1 day, 11.11 µM [10]: 80%; viral polymerase activity [11]: suppressed viral RNA replication/transcription; EC50 [12, 17]: 0.2 to 0.6 µM; antiviral activity on exposure during viral adsorption [13]: failed to induce antiviral activity; inhibition at 10 µM ([13]; Influenza A virus, PR8, 7 h, read-out: inhibition of plaque formation): > 80%
O=c1[nH]c(-c2ccccc2)cc2ccccc12 [Compound 2, 3-phenylisoquinolone] | 73.4 µM | 88.1 µM | 45 µM | > 300 µM | –
O=c1[nH]c(-c2ccccc2O)cc2ccccc12 [Compound 3] | 103 µM | 65 µM | 57 µM | > 300 µM | –
O=c1[nH]c(-c2ccccc2CO)cc2ccccc12 [Compound 4] | 81.3 µM | 17.2 µM | 52.4 µM | > 300 µM | –
COc1ccccc1-c1cc2ccccc2c(=O)[nH]1 [Compound 5] | > 120 µM | 1.4 µM | > 120 µM | 120 µM | –
Cc1cccc(-c2cc3c(N(C)C)cccc3c(=O)[nH]2)c1 [Compound 6] | > 300 µM | 58.7 µM | > 300 µM | > 300 µM | –
Cc1ccc(-c2cc3c(N(C)C)cccc3c(=O)[nH]2)cc1 [Compound 7] | > 300 µM | > 300 µM | > 300 µM | > 300 µM | –
CN(C)c1cccc2c(=O)[nH]c(-c3ccc(Cl)cc3)cc12 [Compound 8] | > 300 µM | > 300 µM | > 300 µM | > 300 µM | –
CN(C)c1cccc2c(=O)[nH]c(-c3ccc(Br)cc3)cc12 [Compound 9] | > 300 µM | > 300 µM | > 300 µM | > 300 µM | –
COc1ccc(-c2cc3cc(C)ccc3c(=O)[nH]2)cc1OC [Compound 11] | 94.5 µM | 74.8 µM | 32.3 µM | > 300 µM | –
Cc1ccc2c(=O)[nH]c(-c3c(C)cccc3C)cc2c1 [Compound 12] | > 300 µM | > 300 µM | > 300 µM | > 300 µM | –
COc1ccc(-c2[nH]c(=O)c3ccc(C)cc3c2Br)cc1OC [Compound 13] | 172 µM | > 300 µM | 177 µM | > 300 µM | –
Cc1ccc2c(=O)[nH]c(-c3c(C)cccc3C)c(Br)c2c1 [Compound 14] | > 300 µM | > 300 µM | > 300 µM | > 300 µM | –
Cn1c(-c2ccccc2C=O)cc2ccccc2c1=O [Compound 15] | > 300 µM | > 300 µM | > 300 µM | > 300 µM | –
Cn1c(-c2ccccc2O)c(C=O)c2ccccc2c1=O [Compound 16] | > 148 µM | > 148 µM | > 148 µM | 148 µM | –
CCc1cc2c(cc1-c1cc3ccc(OC)c(O)c3c(=O)n1C)OCO2 [Compound 17] | 5.8 µM | > 109 µM | 36.8 µM | 109 µM | EC50 ([12]; influenza A strains only (PR8, HK), read-out: EC50 values, range against influenza A viral strains): 5.8 to 36.8 µM
C=Cc1cc2c(cc1-c1cc3ccc(OC)c(OC)c3c(=O)n1C)OCO2 [Compound 18] | 1.4 µM | 1.1 µM | 2.8 µM | 40.3 µM | –
COc1ccc2cc(-c3cc4c(cc3CCO)OCO4)n(C)c(=O)c2c1OC [Compound 19] | 46.2 µM | 22.2 µM | 59.9 µM | > 300 µM | EC50 [12, 17]: 22.2 to 59.9 µM
COc1ccc2cc(-c3cc4c(cc3CCO)OCO4)[nH]c(=O)c2c1OC [Compound 20] | 11.9 µM | 15.6 µM | 29.8 µM | > 300 µM | cell death ([6]; 300 µM): approximately 30%
COc1cc2cc(-c3ccccc3)[nH]c(=O)c2cc1OC [Compound 21, 6,7-dimethoxy-3-phenylisoquinolone] | 10.9 µM | 9.9 µM | 18.5 µM | > 300 µM | inhibitory effect on NA activity [14]: no inhibitory effect; progeny virus production (plaque assay) [8]: inhibited progeny virus production into MDCK culture supernatants in a dose-dependent manner; viral polymerase activity [11]: efficiently suppressed viral polymerase activity; EC50 [12, 17]: 9.9 to 18.5 µM
COc1cc2cc(-c3ccccc3O)[nH]c(=O)c2cc1OC [Compound 22] | > 300 µM | > 300 µM | > 300 µM | > 300 µM | –
COc1cc2cc(-c3cccc(C)c3)[nH]c(=O)c2cc1OC [Compound 23] | > 300 µM | > 300 µM | > 300 µM | > 300 µM | –
CCC(CC)O[C@@H]1C=C(C(=O)O)C[C@H](N)[C@H]1NC(C)=O [OSV-C, oseltamivir carboxylate, reference compound] | 0.03 µM | 0.37 µM | 0.05 µM | > 300 µM | –
NC(=O)c1ncn([C@@H]2O[C@H](CO)[C@@H](O)[C@H]2O)n1 [RBV, ribavirin, reference compound] | – | 48.4 µM | – | – | EC50 ([1]; H3N2, MDCK): 43.8 µM; CC50 at 3 days ([2]; mock-infected MDCK cells): > 300 µM; EC50 ([4]; MDCK): 25 µM
(-)-epigallocatechin-3-gallate [EGCG, reference compound] | – | – | – | – | antiviral activity on exposure during viral adsorption [13]: blocked PR8 infection completely
